Test results as given in patent US20240358731A1, “SUMO PATHWAY AS AN OXYGEN SENSOR RELEVANT TO THE PATHOPHYSIOLOGY OF PULMONARY ARTERY HYPERTENSION AND CARDIAC ARRHYTHMIA” (Northeastern University, priority 2023, published 2024).

How the values were obtained:
[1] = molecular target: T1, Kir2.1-mediated IK1 current (Rattus norvegicus, UniProt Q64273); test: Whole-cell patch-clamp of IK1 in rat ventricular cardiomyocytes under acute hypoxia; assay type: cell-based; conditions: 3 mM
T1 construct: endogenous in cells; host or cells: rat ventricular cardiomyocytes (RVCMs)
T1 sequence (Q64273 1-427): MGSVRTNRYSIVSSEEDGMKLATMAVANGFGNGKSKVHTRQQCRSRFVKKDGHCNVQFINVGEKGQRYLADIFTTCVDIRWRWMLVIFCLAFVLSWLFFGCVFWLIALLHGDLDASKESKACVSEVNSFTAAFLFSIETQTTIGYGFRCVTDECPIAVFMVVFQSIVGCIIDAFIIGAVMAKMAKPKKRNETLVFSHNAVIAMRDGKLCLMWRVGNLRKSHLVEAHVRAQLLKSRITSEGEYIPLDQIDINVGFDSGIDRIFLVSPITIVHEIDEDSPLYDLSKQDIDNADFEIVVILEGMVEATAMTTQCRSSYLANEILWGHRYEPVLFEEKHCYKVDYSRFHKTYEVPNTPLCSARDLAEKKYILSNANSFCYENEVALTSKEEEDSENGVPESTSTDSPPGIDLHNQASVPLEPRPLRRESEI
Experimental: IK1 in rat ventricular cardiomyocytes studied by whole-cell patch-clamp. Hypoxia was a drop in O2 from ambient levels to 2%, measured at the cell. The time-course of hypoxic-inhibition was studied by recording the magnitude of IK1 every second. Cells were studied with the following pipette solutions: control, SUMO1 (1 μM) or SENP1 (2 μM). IK1 was blocked by the addition of 3 mM Ba^2+. […] Left, representative current sweeps; right, a representative time course showing the kinetics of hypoxic inhibition in cardiomyocytes studied with control pipette solution. The inhibition is precluded by including SENP1 (2 μM, magenta) in the recording pipette. The reverse ramp recording protocol is inset. […] SENP1 augments IK1 and protects the current from hypoxia. Data are from 8-10 RVCMs per group, **** P<0.0001, paired, two-tailed Student's […]. […] Representative data are shown with DAPI labeled nuclei and PLA interactions. Summary data are obtained from multiple experiments each with multiple fields of view containing 20-30 nuclei. The scale bar is 10 μm.
To knockdown Kir2.1 expression, RVCMs were transduced with lentiviral particles carrying cGFP and shRNA targeting KCNJ2-mRNA for the channel. Kir2.1 knockdown cells (Kir2.1kd-CMs) were identified by expression of cGFP. Cells were studied with control pipette solution, or with pipette solutions containing purified SUMO1 (1 μM) or SENP1 (2 μM). Where indicated, the control pipette solution contained diC8 PIP2. Paired patch-clamp data were analyzed by Students t-test; ***, P<0.01. […] Kir2.1kd-CMs are identified by expression of GFP (inset, scale bar=10 μm). […] The arrow indicates the change in current-magnitude between exposure to ambient O2 and 2% O2 in the same cell. Right, Concentration-response curve showing that including diC8-PIP2 in the pipette opposes hypoxic-inhibition of IK1 in control RVCMs and RVCMs expressing the scrambled shRNA. The hypoxic-response is diminished in Kir2.1kd-CMs. Data are mean±s.d. for 7-8 cells per condition. […] Current inhibition is diminished when SENP1 is included in the recording pipette and is not observed when SUMO-insensitive Kir2.1-K49Q channels are studied. Data are mean±s.d. for 6 cells per condition.
Hypoxic-inhibition of Kir2.1 in cardiomyocytes via SUMOylation. We studied the effects of acute hypoxia on IK1 in rat ventricular cardiomyocytes (RVCMs) by whole cell patch-clamp recording. […] Both the hypoxia-sensitive and insensitive components of the current were blocked by Ba^2+ (3 mM), consistent with the known role of Kir2 channels in mediating IK1 (FIG. 1a). To determine if SUMOylation mediates the hypoxic inhibition of IK1 we introduced purified SENP1 (2 μM) to the cytosol via the recording pipette. […] Both the SUMO1 and hypoxia-mediated inhibition of IK1 remained stable throughout the remainder of the experiment (up to 10 mins). […] Next, we visualized and quantified the interactions between native Kir2.1 and SUMO1 in RVCMs using the proximity-ligation association (PLA) assay with antibodies we validated in heterologous cells by Western blot. […] The validated Kir2 antibodies were paired with SUMO1 antibodies that we have tested and utilized before. Under control conditions, interactions were observed between Kir2.1 and SUMO1, but not between Kir2.2 or Kir2.3 and SUMO1. […] Although cardiomyocytes are typically cultured at 21% O2, the O2-level in the myocardium is estimated to be in the range of 5-10% O2, under physiological conditions.
Hypoxic-inhibition of IK1/Kir2.1 is reduced by diC8-PIP2 in a concentration-dependent manner. We have shown that adding the exogenous, soluble PIP2 analog diC8-PIP2 into the patch-pipette opposes hypoxic-inhibition of IK1 (FIG. 4). […] As before, the effects of hypoxia were ameliorated by SENP1 (2 μM) and were not observed in the SUMO and hypoxia insensitive Kir2.1-K49Q channels (FIG. 4D).

[2] = molecular target: T2, SUMO activating enzyme (SAE) (Homo sapiens, UniProt Q9UBE0+Q9UBT2); conditions: cited from earlier work
T2 sequence (Q9UBE0 1-346): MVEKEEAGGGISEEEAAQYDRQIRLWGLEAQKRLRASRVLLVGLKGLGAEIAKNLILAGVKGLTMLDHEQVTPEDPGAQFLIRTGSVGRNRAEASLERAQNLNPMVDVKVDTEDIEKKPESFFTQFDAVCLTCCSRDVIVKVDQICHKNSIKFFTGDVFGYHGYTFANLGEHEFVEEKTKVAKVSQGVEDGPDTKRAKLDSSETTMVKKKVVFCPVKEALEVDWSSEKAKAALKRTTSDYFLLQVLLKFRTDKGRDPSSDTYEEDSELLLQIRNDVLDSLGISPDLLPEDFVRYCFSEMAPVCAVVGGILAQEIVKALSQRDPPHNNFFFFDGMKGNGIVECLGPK
T2 sequence (Q9UBT2 1-640): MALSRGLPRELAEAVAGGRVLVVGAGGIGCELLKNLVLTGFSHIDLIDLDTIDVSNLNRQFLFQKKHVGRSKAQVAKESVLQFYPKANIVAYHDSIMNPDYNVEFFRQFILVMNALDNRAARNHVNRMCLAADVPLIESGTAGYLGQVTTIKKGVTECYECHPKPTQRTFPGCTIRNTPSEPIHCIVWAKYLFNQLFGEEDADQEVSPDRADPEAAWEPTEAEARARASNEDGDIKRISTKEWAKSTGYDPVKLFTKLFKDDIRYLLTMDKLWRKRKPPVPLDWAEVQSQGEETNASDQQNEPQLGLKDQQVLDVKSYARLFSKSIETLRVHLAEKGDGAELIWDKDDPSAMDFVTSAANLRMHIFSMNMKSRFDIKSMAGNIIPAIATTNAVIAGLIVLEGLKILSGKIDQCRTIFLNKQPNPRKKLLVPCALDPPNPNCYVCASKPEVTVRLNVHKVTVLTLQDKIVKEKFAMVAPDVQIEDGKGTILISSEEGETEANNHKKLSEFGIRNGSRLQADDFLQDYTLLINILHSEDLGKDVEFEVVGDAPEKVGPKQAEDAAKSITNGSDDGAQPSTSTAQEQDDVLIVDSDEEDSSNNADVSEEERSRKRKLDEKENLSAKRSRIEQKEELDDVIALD

Ubc9 = Ubc9 (Homo sapiens, UniProt P63279); conditions: cited from earlier work
SUMOylation = conditions: cited from earlier work
Kir2.4 = molecular target: T3, Kir2.4 (Homo sapiens, UniProt Q9UNX9); test: Whole-cell patch-clamp of Kir2.4 in HEK293 cells with SUMO1 or SENP1 in the recording pipette; assay type: cell-based; design: expressed in transfected cells; conditions: 1 nM in pipette; 140 mM bath K+; within one-minute of breakthrough
T3 sequence (Q9UNX9 1-436): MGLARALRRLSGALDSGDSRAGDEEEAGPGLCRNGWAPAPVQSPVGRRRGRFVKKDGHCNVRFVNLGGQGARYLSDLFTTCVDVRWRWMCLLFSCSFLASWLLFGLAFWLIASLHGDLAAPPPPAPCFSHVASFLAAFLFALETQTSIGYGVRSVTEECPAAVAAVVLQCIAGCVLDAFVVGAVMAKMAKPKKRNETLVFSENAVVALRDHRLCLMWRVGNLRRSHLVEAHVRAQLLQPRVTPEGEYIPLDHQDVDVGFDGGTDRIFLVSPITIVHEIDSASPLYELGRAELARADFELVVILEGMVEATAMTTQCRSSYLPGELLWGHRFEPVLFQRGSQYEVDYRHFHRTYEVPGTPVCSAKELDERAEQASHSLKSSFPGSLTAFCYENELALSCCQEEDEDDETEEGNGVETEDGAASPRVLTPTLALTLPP
Experimental: Currents were measured at −80 mV in 140 mM external K+.
Similarly, currents were no longer enhanced by SENP1.
SUMOylation regulates Kir2.4 channels in mammalian cells. Next, we tested if SUMO could regulate Kir2.4 channels in mammalian cells. Kir2.4 channels were transiently expressed in HEK293 cells and studied in whole-cell mode with 140 mM bath [K]^+, using a ramp protocol from −80 to +80 mV. Purified SUMO1 or SENP1 peptide were introduced via the recording pipette. At 1 nM, SUMO1, but not heat-denatured SUMO1, inhibited Kir2.4 currents by ˜40 and 60%, respectively, within one-minute of breakthrough. In contrast, 1 nM SENP1 increased the current by ˜50% (FIG. 7).
The PIP2-dependence of SUMO-regulation. Using the 5-ptaseOCRL system, we depleted PIP2 in HEK293 cells expressing Kir2.4 and studied currents with 1 nM SUMO1, or SENP1 in the recording pipette. When currents were recorded after 5-min activation of the optogenetic probe, 5-ptaseOCRL, the inhibitory effect of 1 nM SUMO1 on Kir2.4 was reduced from ˜40% to ˜7% (FIG. 9). Current augmentation observed with SENP1 in the pipette was reduced from […] to ˜6%. These preliminary data support the conclusion that SUMO-regulation of Kir2.4 channels is PIP2-dependent.

Chain of Ubc9 (P63279 whole entry): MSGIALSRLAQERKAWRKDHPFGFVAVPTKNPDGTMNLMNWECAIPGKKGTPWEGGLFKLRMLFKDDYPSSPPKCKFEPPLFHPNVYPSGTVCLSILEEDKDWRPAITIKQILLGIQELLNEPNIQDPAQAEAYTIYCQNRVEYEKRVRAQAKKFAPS

## [Ba+2] [Ba^2+]
[1]
  block of IK1 (hypoxia-sensitive and insensitive components): blocked

## C=CC[C@@H](Nc1ccccc1)C12C=CC(O1)C(C(=O)OC)=C2C(=O)OC (stereo partly shown) [CID9549553]
[2]
  SAE / SUMO E1 inhibition: covalently targets an allosteric binding pocket of SUMO E1

## O=c1cc(-c2ccc(O)c(O)c2O)oc2ccccc12 [Compound 2-D08]
Ubc9
  Ubc9 (SUMO-E2) inhibition: inhibits Ubc9 by preventing the transfer of SUMO from Ubc9 to the substrate

## COc1ccc(NC(=O)Nc2ccc(Oc3ncnc4cc(Cl)ccc34)nc2)cc1OC1CCCC1 [Compound 10]
[2]
  formation of the E1-SUMO complex: prevents formation of the E1-SUMO complex
SUMOylation
  SUMOylation inhibition: potent in vitro SUMOylation inhibitor

## CCCCn1c(NS(=O)(=O)c2ccccc2)c(S(=O)(=O)c2ccc(C)cc2)c2nc3ccccc3nc21 [Compound 15]
[2]
  SAE / SUMO E1 inhibition: most potent

## c1coc(-c2cc(CNc3ncnc4sc5cnccc5c34)no2)c1 [Compound 22]
[2]
  formation of the E1-SUMO complex: unable to block formation of the E1-SUMO complex
Ubc9
  selectivity for the SUMOylation pathway: modest selectivity for the SUMOylation pathway

## Cc1cc(NC(=O)c2ccc(S(=O)(=O)N3CCC(C)CC3)cc2)ccc1NC(=O)Cn1cccn1 [Compound 26]
Ubc9
  formation of the SUMO-E2 complex: inhibited formation of the SUMO-E2 complex

## C[C@@H](C(=O)Nc1ccc(NC(=O)c2ccc(C(=O)c3ccccc3)cc2)cc1)n1cccn1 [Compound 27]
Ubc9
  formation of the SUMO-E2 complex: inhibited formation of the SUMO-E2 complex

## COc1ccc(-c2nnc(Nc3nc4c(OC)cccc4s3)o2)cc1 [Compound N106]
[2]
  SUMO-E1 activation: capable of increasing SUMOylation through the activation of SUMO-E1

## O=C(Oc1cc(C(=O)O[C@H]2O[C@@H](OC(=O)c3cc(O)c(O)c(OC(=O)c4cc(O)c(O)c(O)c4)c3)[C@H](OC(=O)c3cc(O)c(O)c(OC(=O)c4cc(O)c(O)c(O)c4)c3)[C@@H](OC(=O)c3cc(O)c(O)c(OC(=O)c4cc(O)c(O)c(O)c4)c3)[C@@H]2OC(=O)c2cc(O)c(O)c(OC(=O)c3cc(O)c(O)c(O)c3)c2)cc(O)c1O)c1cc(O)c(O)c(O)c1 [Davidiin]
[2]
  formation of the E1-SUMO complex: blocks the formation of the E1-SUMO complex
SUMOylation
  SUMOylation inhibition: one of the most potent natural product SUMOylation inhibitors identified

## NS(=O)(=O)OC[C@H]1C[C@@H](Nc2ncncc2C(=O)c2ccn(Cc3cccc(Br)c3)n2)C[C@@H]1O [ML-792]
[2]
  SAE / SUMO E1 inhibition: selective SAE inhibitor

## CO/C(=C/C(=O)O)[C@H]1c2cc3ccc(-c4ccc5cc6c(c(O)c5c4O)C(=O)C[C@@](C)(O)[C@H]6/C(=C\C(=O)O)OC)c(O)c3c(O)c2C(=O)C[C@@]1(C)O [spectomycin B1]
Ubc9
  Ubc9 (SUMO-E2) inhibition: inhibitors of SUMO-E2

## CC1(C)CCC2=C(O1)c1ccccc1C(=O)C2=O [β-lapachone]
SUMOylation
  SUMOylation inhibition: potent SUMOylation inhibitors

## chaetochromin A
Ubc9
  Ubc9 (SUMO-E2) inhibition: inhibitors of SUMO-E2

## heat-denatured SUMO1: heat-denatured SUMO1 peptide, control
Kir2.4
  inhibition of Kir2.4 currents: not

## viomellein
Ubc9
  Ubc9 (SUMO-E2) inhibition: inhibitors of SUMO-E2
